row,Compound,melting point [°C]
1,Cc1cc(C2=NNC(C)(C#N)Cc3cc4c(cc32)OCO4)ccc1[N+](=O)[O-] (centres undefined),148 to 151
2,Cc1c[nH]c2c([N+](=O)[O-])ccc(Cl)c2c1=O,> 250
3,CS(=O)(=O)CCCOc1ccc(/C=C/C(=O)O)c(Oc2ncc(C(F)(F)F)cc2Cl)c1,202 to 203
4,O=C1c2c(Cl)cccc2-n2cnc(-c3noc(CN(C4CCCCC4)C4CCCCC4)n3)c2[C@@H]2CCN12,155 to 185
5,COc1ccc2sc(C(N)=O)c(Cl)c2c1,220 to 222
6,Cc1nc2cc3c(cc2c(=O)n1COC(=O)C(C)(C)C)C(Br)CC3 (centres undefined),98
7,Cc1c(O)cc2c(c1C)NCC2,164 to 167
8,C=CCc1c(O)ccc2c1CCCC2=O,145 to 148
9,CCOC(=O)c1nc2ccc([N+](=O)[O-])cc2c(=O)[nH]1,227 to 228
10,N#Cc1ccc(N2CCCN(c3ccnc4sc(C(N)=O)c(N)c34)CC2)cc1,151 to 153
11,O=C(NC(=O)c1cc(F)c(F)cc1Cl)Nc1ccc(C(=O)O)cc1OC(F)(F)F,236
12,CCOC(=O)c1cn2c3c(c(F)c(F)cc3c1=O)CCC2CO (centres undefined),256 to 258
13,CSc1sc(C=O)cc1C=O,135 to 137
14,COC(=O)C(Sc1ccc(C)cc1)(C1=NCCCS1)[N+](=O)[O-] (centres undefined),85 to 89
15,CC(O)c1sc(S(N)(=O)=O)cc1S(C)(=O)=O (centres undefined),121 to 127
16,c1ncn(Cc2ccc3c(c2)-c2[nH]nc(-c4ccsc4)c2C3)n1,243 to 245
17,CC(C)(C)OC(=O)N1C[C@@H](CC(=O)COCC[Si](C)(C)C)[C@H]2NC(=O)[C@H]21,89 to 91
18,CCCSC1(SCCC)CCC2C3CCC4=CC(=O)C=CC4(C)C3(F)C(O)CC21C (centres undefined),235 to 237
19,COc1ccc2c(C)cc(=O)oc2c1C,162 to 164
20,CO[Si](OC)(OC)c1ccc(C#Cc2ccc(C#Cc3ccc([Si](OC)(OC)OC)cc3)cc2)cc1,164 to 166
21,CNC(=O)NCc1cccc(-c2csc(N=C(N)N)n2)n1,205 to 206
22,CC(C)(C)c1cc(-c2n[nH]c3ncccc23)cc(C(C)(C)C)c1O,216 to 217
23,Cc1cscc1NC(=S)Nc1cccc(C)c1N,184 to 186

row,Compound,melting point [°C]
1,CN(C)S(=O)(=O)c1ccc2c(c1)S(=O)(=O)NC(C(F)(F)F)=N2,240 to 242
2,CNCCNC(=NCCSCc1[nH]cnc1C)NC#N,146 to 148
3,Nc1ncc(-c2cc(Cl)cc(Cl)c2Cl)c(N)n1,246 to 249
4,Cc1cc(C2=NN(C(N)=S)[C@H](C)Cc3cc4c(cc32)OCO4)cc(C)c1[N+](=O)[O-],228 to 230
5,O=C(Oc1ccc(F)cc1)c1cc(C(F)(F)F)cc(C(F)(F)F)c1,60 to 61
6,O=C(c1cc([N+](=O)[O-])cc(C(F)(F)F)c1)c1cc([N+](=O)[O-])cc(C(F)(F)F)c1,181
7,CCOCc1nc2c(N)nc(C)c(C)c2n1CCC1CCN(C(=O)N2CCOCC2)CC1,158 to 160
8,CCCCOc1csc(C)c1C(=O)O,66 to 68
9,Nc1nc(-c2ccncc2)nc2c1c(Cl)nn2C1CCCC1,132 to 134
10,CNc1nc(Nc2ccc(Cl)c(Cl)c2)ncc1NC(=O)C(C)C,284 to 286
11,N#Cc1ccc(-c2nc(Cl)c3c(n2)CCCC3)cc1,190
12,O=C1c2cc([N+](=O)[O-])cc3c(N4CCCC4)c(Cl)cc(c23)C(=O)N1O,209 to 210
13,O=C1C=C(NC(=O)C(=O)c2cn(Cc3c(F)c(F)c(F)c(F)c3F)c3ccccc23)CO1,280 to 282
14,CC1=C(C(=O)OC(C)C)C(c2ccc(F)cc2Cl)N=C(c2c(F)cccc2F)N1 (centres undefined),155 to 158
15,O=C(O)C1Oc2cc(Cl)c(S(=O)(=O)c3cccc(F)c3)cc2O1 (centres undefined),161 to 163
16,COC(=O)c1ccc(NC2COC(=O)C2)cc1 (centres undefined),136 to 138
17,"CN1CCC23CCCCC2C1Cc1ccc(Oc2nc(-c4ccccc4)nc4ccccc24)cc13 (single isomer, unassigned; (+))",138 to 139
18,CSc1cc(Nc2cccc(C)c2)c(S(=O)(=O)NC(C)(C)C)cn1,178
19,CC(C)(C)OC(=O)N1CCNC(C(=O)O)C1 (centres undefined),226 to 229
20,COc1ccc2c(c1)CNN=C2Cc1c(Cl)cncc1Cl,181 to 183
21,COC(=O)c1cc(-c2ccc3c(c2)CCO3)n[nH]c1=O,192 to 200
22,COc1ccc2c(=O)[nH]nc(C)c2c1,252 to 254
23,CC(=O)CC(=O)NC1CCCCCCC1,44

# The remaining lines, values ahead:
row,melting point [°C],Compound
1,157 to 160,CN1CCN(c2cccc3ccc(Nc4nc(Cc5ccccc5)cs4)cc23)CC1
2,110 to 112,c1ccc(-n2c(-c3cccnc3)nc3ccccc32)cc1
3,167 to 168,COc1ccc(-c2cc(=O)n(Cc3cccnc3)nc2-c2ccc(OC)cc2)cc1
4,267 to 268,CNc1cc(Oc2ccc3c(C(=O)O)cccc3c2)ncn1
5,124 to 127,COc1ccc(CC2=Cc3ncccc3Nc3cccnc32)cc1
6,157,O=C(CC(=O)C(F)(F)F)c1ccc(-c2ccco2)cc1
7,95 to 96,OCCCc1ccc(OCc2coc(/C=C/c3ccccc3)n2)cc1
8,78 to 79,CC(C)C(=O)[C@H]1CCn2c(cc3ccccc32)C1
9,210,Cc1cn(-c2cccc(C3=Nc4ccc(C#Cc5ccc(F)cc5)cc4NC(=O)C3)c2)cn1
10,81 to 83,O=C(OCc1ccccc1)c1ncoc1CCNC(=O)[C@H](Cc1cccs1)N[C@@H](CCc1ccccc1)C(=O)OCc1ccccc1
11,68 to 71,C[C@H]1[C@H](OS(C)(=O)=O)CN1C(c1ccccc1)c1ccccc1 (relative stereo)
12,92 to 94,NS(=O)(=O)c1cc(C(=O)O)cc(SCc2ccsc2)c1-c1ccccc1
13,50 to 51,CCOC(=O)C(OCc1ccc(-c2ccc(Cl)cc2)cc1)c1ccccc1 (centres undefined)
14,132 to 134,O=C(c1ccc(-c2ccccc2)s1)c1ccc(Br)cc1Cl
15,260,Cc1[nH]c(=O)cc2c1CC(c1ccccn1)CC2 (centres undefined)
16,197 to 199,CCCN1N=C2C(=Cc3ccccc3)CS(=O)(=O)CC2C1c1ccccc1 (centres undefined)
17,159 to 161,CCNC(=O)C(=O)[C@H](Cc1ccccc1)NC(=O)[C@H](CC(C)C)NC(=O)O[C@H]1CCOC1
18,147,Cc1cc(C)cc(-c2cnn3c(-c4cccc(C#N)c4)ccnc23)c1
19,127 to 130,CC(C)=Nc1c2c(nc3ccccc13)CCCC2
20,246 to 248,O=C1CC(c2cccc(-n3ccnn3)c2)=Nc2ccc(C#Cc3ccc(F)cc3)cc2N1
21,221 to 223,Cc1cnc2c(Cl)nc3cc4ccccc4cc3n12
22,114 to 117,O=C(Cn1ccnc1)c1cccc2ccccc12
23,50,CCOC(=O)C(C=O)c1ccc(Cl)cc1 (centres undefined)
24,187 to 191,O=C(/C=C/c1ccc2ccccc2c1)Nc1ccccc1-c1nnn[nH]1
25,154 to 155,CCCCCCS(=O)C1CC(=O)N1CC(=O)CCc1ccccc1 (centres undefined)
26,188 to 189,Cc1nc2ccccc2n2cnc(-c3nc(C4CC4)no3)c12
27,206 to 208,Nc1c(F)c(N2CCC(c3ccccn3)C2)c(F)c2c1c(=O)c(C(=O)O)cn2C1CC1 (centres undefined)

row,melting point [°C],Compound
1,220,O=C(c1ccccc1)N1CCC(c2c[nH]c3cc(F)ccc23)CC1
2,118 to 120,COC(=O)[C@@H]1O[C@@H](c2ccccc2)N(NS(=O)(=O)c2ccc([N+](=O)[O-])cc2)[C@H]1c1ccccc1
3,177 to 178,COc1cccc(CNC(=O)c2nc3scc(-c4ccccc4)c3c(=O)[nH]2)c1
4,225 to 228,CCc1nc2c(N)nc3ccccc3c2n1CCCS(=O)(=O)NC
5,186 to 193,O=C(c1ccc(Cl)cc1)c1c(N2C(=O)c3ccccc3C2=O)sc(Br)c1CN1CCN(c2ccccc2)CC1
6,148 to 151,NC(=O)CCC1CN(c2ccc(C3=CCN(C=O)CC3)c(F)c2)C(=O)O1 (centres undefined)
7,168 to 169,c1ccc(-c2ccc3sc(-c4nc(COc5ccc(CCCn6ccnc6)cc5)co4)cc3c2)cc1
8,198,C=CCS(=O)(=O)c1ccc(N2CC=C(c3ccc(Cl)c(Cl)c3)N2)cc1
9,130 to 131,CCOC(=O)C(C(=O)OC(c1ccccc1)c1ccccc1)C(=O)c1cc(F)c(OC)nc1Nc1ccc(F)cc1F (centres undefined)
10,187 to 190,Cc1cc(NCC(C)C)c2[nH]nc(-c3ccccc3)c2n1
11,150 to 151,COC(=O)c1ccc(S(=O)(=O)C(Cn2ccnc2)c2ccccc2OC)cc1 (centres undefined)
12,179 to 182,CC(=O)Nc1ccc(OCc2nc3ccccc3s2)cc1C
13,185 to 186,Nc1cc(=O)n(Cc2ccc(-c3ccccc3)cc2)[nH]1
14,169 to 172,Oc1ccc2c(c1)CCN(Cc1ccc3c(c1)OCO3)C2
15,114 to 116,COc1cc(CCl)c(CCl)cc1OCc1ccccc1
16,133 to 136,O=C1CCC(CN2C(=O)C3(COc4cc5c(cc43)CCO5)c3ccccc32)N1 (centres undefined)
17,235,COc1cccc(C2(CC(=O)O)C(=O)Nc3ccc(Cl)cc32)c1OC (centres undefined)
18,308 to 310,Cn1c(=O)n(Cc2ccc(Cl)cc2Cl)c(=O)c2ccc(C(=O)O)cc21
19,136 to 139,CCCCOCCOc1ccc(-c2ccc(N3CCC(C)C3)c(C=CC(=O)O)c2)cc1 (centres undefined)
20,99 to 101,O=C1CCC(c2ccc(Cl)c(Cl)c2)c2ccccc21 (centres undefined)
21,76 to 77,O=Cc1c(OCCCCCCC(=O)N(Cc2ccccc2)Cc2ccccc2)cc(Cl)cc1[N+](=O)[O-]
22,143 to 144,COc1cc(N)c(Cl)cc1C(=O)NCC1CCN(CCCCCSc2ccccc2)CC1
23,107 to 109,COC(=O)CP(=O)(O)C(CCCc1ccccc1)NC(=O)OCc1ccccc1 (centres undefined)
24,174 to 175,Cc1ccc(C)n1CCNC(=S)Nc1ccc(C(=O)O)cc1
25,78 to 80,COC1=C(OC)C(=O)C2=C(CC(CCCCCCCCN3CCN(Cc4ccccc4)CC3)(c3ccccc3)C2)C1=O
26,111 to 113,Cc1c(-c2cccnc2)n(CCCCCC(=O)O)c2ccccc12

# Reference: a melting point compilation (Tetko et al.; mined from patent text by program, amines drawn as free bases though some values may be those of a salt)
